Counter-ions that a name gives are not always drawn. Like-named read-outs stand apart in the source and are kept apart here.
Key:
[1] = system: fibrin-induced microglia activation; assay: Image-based assay of fibrin-induced microglia activation (HTS and dose response); type: cell-based, rat; conditions: for inhibition at 10 µM: Rattus norvegicus, Microglia, read-out: Fibrin % inhibition
[2] = system: LPS-induced microglia activation; assay: Image-based assay of LPS-induced microglia activation (HTS and dose response); type: cell-based, rat; conditions: for inhibition at 10 µM: Rattus norvegicus, Microglia, read-out: LPS % inhibition
[3] = system: fibrin- and LPS-induced microglia activation; assay: cells; type: cell-based, rat
primary rat microglia [4] = assay: Cell toxicity (dead cells, size <150 μm2) in LPS assay
primary rat microglia [5] = assay: Cell toxicity (dead cells, size <150 μm2) in coated fibrin (cFib) assay;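 further: share of dead cells sized under 150 µm2 at 10 µM in fibrin-stimulated microglia HTS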
[6] = primary HTS, 10 μM, fibrin-stimulated primary microglia
[7] = primary HTS, 10 μM, LPS-stimulated primary microglia
[8] = primary HTS, 10 μM, LPS assay, dead cells size <150 μm2
[9] = primary HTS, 10 μM, fibrin assay, dead cells size <150 μm2
[10] = primary microglia HTS, fibrin stimulation, increased cell size (>800 μm^2) as marker of activation
[11] = 48 h, primary microglia HTS, LPS stimulation, increased cell size (>800 μm^2) as marker of activation
[12] = quadrant by fibrin and LPS inhibition in HTS of 1907 compounds
[13] = primary microglia HTS, LPS stimulation, decreased size (<150 μm^2) as marker of toxicity
[14] = primary microglia HTS, fibrin stimulation, decreased size (<150 μm^2) as marker of toxicity
[15] = primary microglia HTS, fibrin stimulation, activation = cell size >800 μm2
[16] = 48 h, primary microglia HTS, LPS stimulation, activation = cell size >800 μm2
[17] = primary microglia HTS, LPS stimulation, toxicity = cell size <150 μm2
[18] = primary microglia HTS, fibrin stimulation, toxicity = cell size <150 μm2
[19] = primary microglia HTS, LPS stimulation, increased cell size (>800 μm^2) as marker of activation
[20] = primary microglia HTS, 10 μM, fibrin-stimulated, cell size >800 μm^2 as marker of activation
[21] = primary microglia HTS, 10 μM, LPS-stimulated, cell size >800 μm^2 as marker of activation
[22] = HTS of 1907 compounds, quadrant by fibrin and LPS inhibition
[23] = primary microglia HTS, 10 μM, LPS assay, cell size <150 μm^2 as marker of toxicity
[24] = primary microglia HTS, 10 μM, fibrin assay, cell size <150 μm^2 as marker of toxicity

In the case of `Oc1ccc(Cl)c2c1CCC2` [Chlorindanol], the inhibition at 10 µM [1, 6] is reported as 23%, the inhibition at 10 µM [2, 7] is reported as 15% and the “Quadrant (FIG. 5b)” value ([3]; primary HTS, 10 μM) is reported as “Q4”. For the same compound, the “LPS % cell toxicity” value (primary rat microglia [4]; [8]) was 0% and the “Fibrin % cell toxicity” value (primary rat microglia [5]; [9]) was 1%.
With `C#C[C@]1(OC(C)=O)CC[C@H]2[C@@H]3CCC4=CC(=O)CC[C@@H]4[C@H]3CC[C@@]21C` [Norethindrone Acetate] the inhibition at 10 µM [1, 10] was -5%, the inhibition at 10 µM [2, 11] was 18% and the “Quadrant (FIG. 5b)” value [3, 12] was “Q4”. For the same compound, the “LPS % cell toxicity” value (primary rat microglia [4]; [13]) was 0% and the “Fibrin % cell toxicity” value (primary rat microglia [5]; [14]) was 1%.
`C=C1/C(=C\C=C2/CCC[C@]3(C)[C@@H]([C@H](C)/C=C/[C@@H](O)C4CC4)CC[C@@H]23)C[C@@H](O)C[C@@H]1O` [Calcipotriol] was tested, and the inhibition at 10 µM [1, 6] was 2%, the inhibition at 10 µM [2, 7] was -8% and the “Quadrant (FIG. 5b)” value ([3]; primary HTS, 10 μM) was “Q4”. The “LPS % cell toxicity” value (primary rat microglia [4]; [8]) was 0% and the “Fibrin % cell toxicity” value (primary rat microglia [5]; [9]) was 1%.
`C[N+]12CCC(CC1)C(OC(=O)C(O)(c1ccccc1)c1ccccc1)C2` (centres unmarked) [Clidinium Bromide] was tested, and the inhibition at 10 µM [1, 6] was -20%, the inhibition at 10 µM [2, 7] was 9% and the “Quadrant (FIG. 5b)” value ([3]; primary HTS, 10 μM) was “Q4”. The “LPS % cell toxicity” value (primary rat microglia [4]; [8]) was 0% and the “Fibrin % cell toxicity” value (primary rat microglia [5]; [9]) was 1%.
In the case of `Cn1nnnc1SCC1=C(C(=O)O)N2C(=O)[C@@H](NC(=O)[C@H](OC=O)c3ccccc3)[C@H]2SC1` [Cefamandole Nafate], the inhibition at 10 µM [1, 6] is reported as -3%, the inhibition at 10 µM [2, 7] is reported as 12% and the “Quadrant (FIG. 5b)” value ([3]; primary HTS, 10 μM) is reported as “Q4”. The “LPS % cell toxicity” value (primary rat microglia [4]; [8]) was 0% and the “Fibrin % cell toxicity” value (primary rat microglia [5]; [9]) was 0%.
In the case of `CN1[C@@H](CC(=O)c2ccccc2)CCC[C@H]1C[C@H](O)c1ccccc1` [Lobeline], the inhibition at 10 µM [1, 15] is reported as -38%, the inhibition at 10 µM [2, 16] is reported as -5% and the “Quadrant (FIG. 5b)” value [3, 12] is reported as “Q4”. The “LPS % cell toxicity” value (primary rat microglia [4]; [17]) was 0% and the “Fibrin % cell toxicity” value (primary rat microglia [5]; [18]) was 1%.
`COc1c(N2CCNC(C)C2)c(F)cc2c(=O)c(C(=O)O)cn(C3CC3)c12` (centres unmarked) [Gatifloxacin] was tested, and the inhibition at 10 µM [1, 15] was -19%, the inhibition at 10 µM [2, 16] was 19% and the “Quadrant (FIG. 5b)” value [3, 12] was “Q4”. The “LPS % cell toxicity” value (primary rat microglia [4]; [17]) was 0% and the “Fibrin % cell toxicity” value (primary rat microglia [5]; [18]) was 1%.
`COc1ccc(CCN2CCC(Nc3nc4ccccc4n3Cc3ccc(F)cc3)CC2)cc1` [Astermizole] was tested, and the Fibrin % inhibition [1, 10] was 10%, the LPS % inhibition [2, 19] was 69% and the “Quadrant (FIG. 5b)” value [3, 12] was “Q1”. For the same compound, the “LPS % cell toxicity” value (primary rat microglia [4]; [13]) was 2% and the “Fibrin % cell toxicity” value (primary rat microglia [5]; [14]) was 1%.
In the case of `COc1cc(/C=C/C(=O)N2CCCCCCC2)cc(OC)c1OC` [Cinoctramide], the Fibrin % inhibition [1, 10] is reported as 90%, the LPS % inhibition [2, 19] is reported as 53% and the “Quadrant (FIG. 5b)” value [3, 12] is reported as “Q2”. For the same compound, the “LPS % cell toxicity” value (primary rat microglia [4]; [13]) was 1% and the “Fibrin % cell toxicity” value (primary rat microglia [5]; [14]) was 4%.
In the case of `Nc1ncnc(Nc2ccc(Cl)cc2)n1` [Chlorazanil Hydrochloride], the inhibition at 10 µM [1, 6] is reported as 0%, the inhibition at 10 µM [2, 7] is reported as 3% and the “Quadrant (FIG. 5b)” value ([3]; primary HTS, 10 μM) is reported as “Q4”. For the same compound, the “LPS % cell toxicity” value (primary rat microglia [4]; [8]) was 0% and the “Fibrin % cell toxicity” value (primary rat microglia [5]; [9]) was 1%.
In the case of `COc1ccc2c(c1OC)C(=O)O[C@@H]2[C@H]1c2c(cc3c(c2OC)OCO3)CCN1C` [Noscapine Hydrochloride], the inhibition at 10 µM [1, 10] is reported as -15%, the inhibition at 10 µM [2, 11] is reported as 23% and the “Quadrant (FIG. 5b)” value [3, 12] is reported as “Q4”. For the same compound, the “LPS % cell toxicity” value (primary rat microglia [4]; [13]) was 0% and the “Fibrin % cell toxicity” value (primary rat microglia [5]; [14]) was 1%.
With `Cc1cn([C@H]2C=C[C@@H](CO)O2)c(=O)[nH]c1=O` [Stavudine] the inhibition at 10 µM [1, 20] was -17%, the inhibition at 10 µM [2, 21] was 19% and the “Quadrant (FIG. 5b)” value [3, 22] was “Q4”. For the same compound, the “LPS % cell toxicity” value (primary rat microglia [4]; [23]) was 0% and the “Fibrin % cell toxicity” value (primary rat microglia [5]; [24]) was 1%.
In the case of `C/C(=C\C(=O)OCCCCCCCCC(=O)O)C[C@@H]1OC[C@H](C[C@@H]2O[C@H]2[C@@H](C)[C@H](C)O)[C@@H](O)[C@H]1O` [Mupirocin], the inhibition at 10 µM [1, 10] is reported as 11%, the inhibition at 10 µM [2, 11] is reported as 20% and the “Quadrant (FIG. 5b)” value [3, 12] is reported as “Q4”. The “LPS % cell toxicity” value (primary rat microglia [4]; [13]) was 0% and the “Fibrin % cell toxicity” value (primary rat microglia [5]; [14]) was 1%.
`COc1ccnc(C[S+]([O-])c2nc3cc(OC(F)F)ccc3[n-]2)c1OC.[Na+]` (centres unmarked) [Pantoprazole, Pantoprazole Sodium Salt] was tested, and the Fibrin % inhibition [1, 10] was −8%, the LPS % inhibition [2, 19] was −1% and the “Quadrant (FIG. 5b)” value [3, 12] was “Q4”. The “LPS % cell toxicity” value (primary rat microglia [4]; [13]) was 0% and the “Fibrin % cell toxicity” value (primary rat microglia [5]; [14]) was 0%.
With `CC(=O)NS(=O)(=O)c1ccc(N)cc1` [Sulfacetamide] the inhibition at 10 µM [1, 20] was -2%, the inhibition at 10 µM [2, 21] was 10% and the “Quadrant (FIG. 5b)” value [3, 22] was “Q4”. For the same compound, the “LPS % cell toxicity” value (primary rat microglia [4]; [23]) was 0% and the “Fibrin % cell toxicity” value (primary rat microglia [5]; [24]) was 1%.
`Cc1ccnc(NS(=O)(=O)c2ccc(N)cc2)n1` [Sulfamerazine] was tested, and the inhibition at 10 µM [1, 20] was -2%, the inhibition at 10 µM [2, 21] was 12% and the “Quadrant (FIG. 5b)” value [3, 22] was “Q4”. The “LPS % cell toxicity” value (primary rat microglia [4]; [23]) was 0% and the “Fibrin % cell toxicity” value (primary rat microglia [5]; [24]) was 1%.

Source: patent publication US20210330611A1, “THERAPY FOR NEUROLOGICAL DISEASES/DISORDERS” (priority 2020, published 2021)
